Measured values as given in patent US20140127158A1, “COMBINATION THERAPY FOR HEPATITIS C VIRUS INFECTION” (National Health Research Institute, priority 2012, published 2014).
Read-outs that look alike come from different tables or passages of the source.

Experiments:
[1] = system: HCV genotype 1b replicon (Con1); test: Inhibitory assay for HCV replicons (luciferase), genotype 1b Con1; format: cell-based, Hepatitis C virus
Description: (§1) (2) Cell culture and HCV inhibitors. Huh-7.5 cells and their derivative HCV replicon cell lines were maintained in Dulbecco's modified Eagle's medium (DMEM, Gibco/BRL) that was supplemented with 100 U/mL penicillin-streptomycin (Gibco/BRL), 0.1 mM nonessential amino acid (NEAA, Gibco/BRL) and 10% fetal bovine serum (FBS) heat inactivated at 37° C. in 5% CO2. The HCV replicon cell lines were isolated from colonies as described in Lohman et al., Science 285:110-3 (1999). The culture medium for the replicon cells was additionally supplemented with 0.25 to 0.5 mg/mL of G418, unless specified otherwise. Compound DBPR110 and sofosbuvir were synthesized at the Institute of Biotechnology and Pharmaceutical Research at the National Health Research Institutes in Taiwan. Telaprevir (Lin et al., Antimicrob Agents Chemother, 50:1813-22 (2006)) was purchased from Acme Biosciences (Belmont, Calif.). The compounds were stored at −20° C. as 10 to 500 mM dimethyl sulfoxide (DMSO) stock solutions until the assay. IFN-α was purchased from Calbiochem (La Jolla, Calif.) and stored at −80° C.
(§2) (3) Inhibitory assay for HCV replicons. Cells were seeded at 1×10^4 (high-throughput screening assay) or 1×10^5 (regular assay) cells/well in 96- or 12-well plate, respectively, and incubated for 4 h. The medium was then aspirated and replaced with 0.1 (96-well plate) or 1 (12-well plate) mL of complete medium containing a single compound or combinations of compounds in serial concentration(s). The plates with compounds were incubated for 72 h and then assayed for luciferase expression (Promega). The EC50 of each compound was determined independently and used to determine the range of concentrations used for the combination experiments. All data are presented as the means±standard deviations (SD) from three independent experiments. The selectivity index (SI) was calculated as the ratio of the CC50 to the EC50.

[2] = system: Infectious HCV, Genotype 2a, JFH1; test: Small molecule inhibition of HCV infectivity (luciferase); format: cell-based, Hepatitis C virus
Description: (5) Small molecule inhibition of HCV infectivity. To quantify the inhibitory effect of DBPR110 on HCV particle formation, HCV replication in DBPR110-treated and untreated cells was quantified using a luciferase activity assay, as described previously. See, e.g., Wakita et al., Nat Med 11:791-6 (2005); and Zhang et al., Antimicrob Agents Chemother 52:666-74 (2008). In vitro-transcribed RNA derived from full-length HCV2a JFH1 infectious cDNA clone with the luciferase reporter gene was delivered to Huh-7.5 cells by electroporation. The cells were seeded at 1×10^5 cells per well in 12-well plates and incubated for 4 h. The medium was then aspirated and replaced with 1 mL of complete medium containing DBPR110 in serial concentration. The plates with compounds were incubated for 72 h and the medium were then used to infect Huh-7.5 cells. Huh-7.5 cells were seeded in 12-well plates (1×10^5 cells/well) in DMEM with 10% FBS for 24 h before infection. The HCV cell culture (HCVcc)-containing supernatant per well was added to the Huh-7.5 cells. After 72 h of incubation at 37° C., the total cell lysate was assayed for luciferase expression (Promega).

[3] = system: HCV genotype 2a replicon (JFH1); test: Inhibitory assay for HCV replicons (luciferase), genotype 2a JFH1; format: cell-based, Hepatitis C virus
Description: as §1, §2

[4] = system: HCV genotype 1b replicon; test: Inhibitor combination study (combination index, CalcuSyn); conditions: at the concentrations used in the combination experiments
[5] = system: genotype 1b HCV replicon with NS5A amino acid substitutions; test: Transient replicon assay, genotype 1b NS5A amino acid substitutions; format: cell-based, Hepatitis C virus; conditions: for EC50 / EC90: Hepatitis C virus
[6] = Hepatitis C virus, JFH1 replicon cell line
[7] = genotype 1b NS5A V153M + M202L + M265V
[8] = genotype 1b NS5A Y93H + V153M + M202L + M265V
[9] = genotype 1b NS5A Y93N + V153M + M202L + M265V

O=C(N[C@@H](C(=O)N1CCC[C@H]1c1ncc(-c2ccc(-c3ccc(-c4cnc([C@@H]5CCCN5C(=O)[C@H](NC(=O)C5CC5)c5ccccc5)s4)cc3)cc2)s1)c1ccccc1)C1CC1 [DBPR110]
EC50 ([1]; Hepatitis C virus, HCV-1b replicon cell lines, single agent, combination study system, read-out: EC50): 3.3 ± 0.8 pM
EC50 ([1]; Hepatitis C virus, parental genotype 1b replicon cells, read-out: EC50): 3.9 pM
EC50 ([1]; Hepatitis C virus, Genotype 1b, Con1 replicon cell line, read-out: Luciferase activity assay EC50): 3.9 pM
EC90 ([1]; Hepatitis C virus, Genotype 1b, Con1 replicon cell line, read-out: Luciferase activity assay EC90): 8.2 ± 1.8 pM
susceptibility of genotype 1b greater than that of genotype 2a replicon cells ([1]; genotype 1b vs genotype 2a replicon cells): 74 fold
Selective index ([2]; CC50/EC50, Infectious HCV, Genotype 2a, JFH1): >720,461
EC50 ([2]; Hepatitis C virus, read-out: Luciferase activity assay EC50): 0.0183 nM
EC90 ([2]; Hepatitis C virus, read-out: Luciferase activity assay EC90): 0.258 ± 0.0502 nM
Selective index ([3]; CC50/EC50, JFH1): >173,130
EC50 [3, 6]: 0.229 nM
EC90 [3, 6]: 0.465 ± 0.0966 nM
cytotoxicity [4]: No cytotoxicity was observed
EC50 ([5]; genotype 1b NS5A M202L): 0.0021 ± 0.0006 nM
EC90 ([5]; genotype 1b NS5A M202L): 0.005 ± 0.0014 nM
EC50 ([5]; genotype 1b NS5A M265V): 0.002 ± 0.0009 nM
EC90 ([5]; genotype 1b NS5A M265V): 0.0051 ± 0.0017 nM
EC50 ([5]; genotype 1b NS5A P58L): 0.564 ± 0.194 nM
EC90 ([5]; genotype 1b NS5A P58L): 2.73 ± 0.909 nM
EC50 ([5]; genotype 1b NS5A P58S): 0.038 ± 0.014 nM
EC90 ([5]; genotype 1b NS5A P58S): 0.064 ± 0.011 nM
EC50 ([5]; genotype 1b NS5A P58T): 0.243 ± 0.04 nM
EC90 ([5]; genotype 1b NS5A P58T): 1.3 ± 0.219 nM
EC50 ([5]; genotype 1b NS5A Parental): 0.0015 ± 0.0006 nM
EC90 ([5]; genotype 1b NS5A Parental): 0.0042 ± 0.0021 nM
EC50 ([5]; genotype 1b NS5A V153M): 0.0013 ± 0.0005 nM
EC90 ([5]; genotype 1b NS5A V153M): 0.0041 ± 0.0019 nM
EC50 [5, 7]: 0.0011 ± 0.0005 nM
EC90 [5, 7]: 0.0031 ± 0.0011 nM
EC50 ([5]; genotype 1b NS5A Y93C): 0.078 ± 0.04 nM
EC90 ([5]; genotype 1b NS5A Y93C): 0.177 ± 0.062 nM
EC50 ([5]; genotype 1b NS5A Y93H): 1.41 nM
EC90 ([5]; genotype 1b NS5A Y93H): 7.34 nM
EC50 [5, 8]: 8.74 nM
EC90 [5, 8]: 37.7 nM
EC50 ([5]; genotype 1b NS5A Y93N): 3.82 nM
EC90 ([5]; genotype 1b NS5A Y93N): 13.3 nM
EC50 [5, 9]: 27.3 nM
EC90 [5, 9]: 98.9 nM
Fold resistance (EC50) ([5]; genotype 1b NS5A M202L): 1 fold
Fold resistance (EC90) ([5]; genotype 1b NS5A M202L): 1 fold
Fold resistance (EC50) ([5]; genotype 1b NS5A M265V): 1 fold
Fold resistance (EC90) ([5]; genotype 1b NS5A M265V): 1 fold
Fold resistance (EC50) ([5]; genotype 1b NS5A P58L): 376 fold
Fold resistance (EC90) ([5]; genotype 1b NS5A P58L): 650 fold
Fold resistance (EC50) ([5]; genotype 1b NS5A P58S): 25 fold
Fold resistance (EC90) ([5]; genotype 1b NS5A P58S): 15 fold
Fold resistance (EC50) ([5]; genotype 1b NS5A P58T): 162 fold
Fold resistance (EC90) ([5]; genotype 1b NS5A P58T): 310 fold
Fold resistance (EC50) ([5]; genotype 1b NS5A Parental): 1 fold
Fold resistance (EC90) ([5]; genotype 1b NS5A Parental): 1 fold
Fold resistance (EC50) ([5]; genotype 1b NS5A V153M): 1 fold
Fold resistance (EC90) ([5]; genotype 1b NS5A V153M): 1 fold
Fold resistance (EC50) [5, 7]: 1 fold
Fold resistance (EC90) [5, 7]: 1 fold
Fold resistance (EC50) ([5]; genotype 1b NS5A Y93C): 52 fold
Fold resistance (EC90) ([5]; genotype 1b NS5A Y93C): 42 fold
Fold resistance (EC50) ([5]; genotype 1b NS5A Y93H): 939 fold
Fold resistance (EC90) ([5]; genotype 1b NS5A Y93H): 1,747 fold
Fold resistance (EC50) [5, 8]: 5,824 fold
Fold resistance (EC90) [5, 8]: 8,979 fold
Fold resistance (EC50) ([5]; genotype 1b NS5A Y93N): 2,547 fold
Fold resistance (EC90) ([5]; genotype 1b NS5A Y93N): 3,168 fold
Fold resistance (EC90) [5, 9]: 23,550 fold
